Source: PubChem BioAssay (NCI)
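In this assay, cells in 96-well plates receive the compound at five concentrations for 48 hours. Endpoints are linearly interpolated between the surrounding concentrations. The concentration for full growth arrest is given as TGI.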

Assays:
Test in all cases: NCI tumour cell line growth inhibition, 48 h
HS 578T breast = tested on: HS 578T breast
NCI-H23 lung = tested on: NCI-H23 lung
SF-268 CNS = tested on: SF-268 CNS
UACC-257 melanoma = tested on: UACC-257 melanoma
EKVX NSCLC = tested on: EKVX NSCLC
SK-MEL-2 melanoma = tested on: SK-MEL-2 melanoma
COLO 205 colon = tested on: COLO 205 colon
DU-145 prostate = tested on: DU-145 prostate
SNB-75 CNS = tested on: SNB-75 CNS
RXF 393 renal = tested on: RXF 393 renal
SF-539 CNS = tested on: SF-539 CNS
NCI-H522 lung = tested on: NCI-H522 lung

Structure (SMILES) | TGI (HS 578T breast) [µM] | TGI (NCI-H23 lung) [µM] | TGI (SF-268 CNS) [µM] | TGI (UACC-257 melanoma) [µM] | TGI (EKVX NSCLC) [µM] | TGI (SK-MEL-2 melanoma) [µM] | TGI (COLO 205 colon) [µM] | TGI (DU-145 prostate) [µM] | TGI (SNB-75 CNS) [µM] | TGI (RXF 393 renal) [µM] | TGI (SF-539 CNS) [µM] | TGI (NCI-H522 lung) [µM]
CC1[C@@H](OCc2ccccc2)COC(=O)N1Cc1ccccc1 (stereo partly specified) | > 100 | > 100 | > 100 | > 100 | > 100 | > 100 | > 100 | > 100 | > 100 |  |  | 
CCOC(=O)c1ccc(C(=O)/C(C#N)=C2\CCCN2)[nH]1 | > 100 | > 100 | > 100 | > 100 | > 100 | > 100 | > 100 | > 100 | > 100 | > 100 | > 100 | 
Cc1c2c(n(CCc3ccccc3)c1C)NN=C(C#N)S2(=O)=O | > 100 | > 100 | > 100 | > 100 | > 100 | > 100 | > 100 | > 100 | > 100 |  | > 100 | > 100
C=CCOCn1ccc(=O)[nH]c1=O | > 100 | > 100 | > 100 | > 100 | > 100 |  | > 100 | > 100 | > 100 |  | > 100 | > 100
CC1=C(OC2OC(CO)C(O)C(O)C2O)C(=O)C[C@H]2C1=CC[C@@H]1[C@@]2(C)C(=O)C[C@]2(C)[C@@H]([C@@](C)(O)C(=O)CCC(C)(C)O)[C@H](O)C[C@@]12C (stereo partly specified) |  | > 100 | > 100 | > 100 | > 100 | > 100 | > 100 | > 100 | > 100 | > 100 | > 100 | > 100
CC1C[C@]2(C)C(=S)Nc3ccccc3[C@@H]2Nc2ccccc21 (stereo partly specified) | 85.5 | 33.9 | 16.4 | 32.5 | 57.5 | 32 | 33.8 | 17.5 | 61 | 34.8 | 34.2 | 
CC1(C)C(=O)N=C(N)N1C(=O)OCc1ccccc1 | > 100 | > 100 | > 100 | > 100 | > 100 | > 100 | > 100 | > 100 | > 100 |  | > 100 | > 100
CCOC(=O)c1c(NC(=O)Nc2ccccc2)c(C(N)=O)c2n1CCCCC2 | > 100 | > 100 | > 100 | > 100 | > 100 | > 100 | > 100 | > 100 | > 100 | > 100 | > 100 | 
O=C(Cc1ccccc1)c1ccc2[nH]c(=O)oc2c1 | 22.9 | > 100 | > 100 | > 100 | 64.4 | > 100 | > 100 | > 100 | 33.4 | > 100 | > 100 | 
S=C(Nc1cccc(Cl)c1)Nc1ccccn1 | > 100 |  | > 100 | > 100 | > 100 | > 100 | > 100 | > 100 | > 100 | > 100 | > 100 | 
O=C(CCCn1ccnc1[N+](=O)[O-])NCCn1ccnc1 | > 100 | > 100 | > 100 | > 100 |  | > 100 | > 100 | > 100 | > 100 |  | > 100 | > 100
COC(=N)C12C(N)=NC(OC)(OC)C1(C#N)C21C(=O)N(c2ccccc2)N=C1C (stereo unspecified) |  | > 100 | > 100 | > 100 | > 100 | > 100 | > 100 | > 100 | > 100 | > 100 | > 100 | > 100
CCCCCCCCCCCCCCCCP(=O)(O)OP(=O)(O)OCC1OC(n2cnc3c(N)ncnc32)C(O)C1O (stereo unspecified) | 89.1 | 68.2 | 95.2 | 60 | > 100 | > 100 | > 100 | > 100 | 45.3 |  | 43.5 | 41.7
CCCCCc1c2nc(c(CCCCC)c3ccc([nH]3)c(CCCCC)c3ccc([nH]3)c(CCCCC)c3nc1C=C3)C=C2 | > 100 | > 100 | > 100 | > 100 | > 100 | > 100 | > 100 | > 100 | > 100 |  | > 100 | > 100
O=C1CCCC2=C1CC1=C(CCCC1=O)N2c1cccc2ccccc12 | > 100 | > 100 | > 100 |  | > 100 |  |  |  | > 100 | 54.4 | > 100 | 
CC(=O)c1ccc2c(c1)oc(=O)n2CCN1CCCCC1 | > 100 | > 100 | > 100 | > 100 | > 100 | > 100 | > 100 | > 100 |  | > 100 | > 100 | 
C[Si](C)(C)OC1c2[nH]c3ccccc3c2CN2C(=O)CCC12 (stereo unspecified) | > 100 |  | > 100 | > 100 | > 100 | > 100 | > 100 | > 100 | > 100 |  | > 100 | > 100
